Experimental data reported in patent US20040136975A1 (priority 2004, published 2004).

Legend:
[1] = system: non-transformed (pDCR) NIH 3T3 cells; experiment: cells; format: cell-based; details: Mus musculus, NIH3T3, 48 h, read-out: inhibition of growth
transformed cells = details: cited from earlier work
VEGF = details: cited from earlier work
transfected EC cells = details: cited from earlier work

Compound | inhibition at 50 µM [1] [%] | morphological reversion of transformed cells (transformed cells) | up-regulation of VEGF by heregulin (VEGF) | basal motility and motility stimulated by JNK agonists (transfected EC cells)
COc1cccc(-c2cc(=O)c3ccccc3o2)c1N [PD98059] | 50 | causes morphological reversion | not | –
COc1cc(/C=C/C(=O)CC(=O)/C=C/c2ccc(O)c(OC)c2)ccc1O [curcumin] | – | – | – | decreased
SB203580 | – | – | blocks | –
trans-retinoic acid | – | – | – | decreased
